Molecules are shown by their SMILES. Counter-ions that a name gives are not always drawn. Some results are limits rather than exact numbers.

The target in one data set is T1, NLRP3 (Homo sapiens, UniProt Q96P20).
T1 construct: This experiment utilized the human-derived monocyte cell line THP1; endogenous in cells; host or cells: THP-1 (human monocyte line, PMA-differentiated into macrophages)
Kind of data set: Detecting IC50 of NLRP3 inhibitor by using THP-1 cells (IL-1β secretion, CBA). The note with it: PMA/LPS/ATP, IL-1β in supernatant. The data set is classed as cell-based. The text has this: 1. Experimental principle: This experiment utilized the human-derived monocyte cell line THP1 to investigate the inhibitory activity (IC50) of NLRP3 inhibitor on cellular IL-1β secretion. PMA (12-O-tetradecanoylphorbol-13-acetate) was used to differentiate the monocyte cell line THP1 into mature macrophages, which were then stimulated using LPS (lipopolysaccharide), an agonist of the Toll-like receptor TLR4, to activate the transcriptional activity of the inflammasome NLRP3 and the expression of pro-IL-1β, a precursor of IL-1β. At this time, the inhibitor of NLRP3 was added, and then ATP (adenosine triphosphate) was added to further mature and activate NLRP3, and activate downstream caspase-1. Activated caspase-1 may enzymatically process pro-IL-1β into mature IL-1β that can be secreted.
(1) The density of THP1 cells was adjusted to 5×10^5 cells/mL, then PMA was added, and the final concentration was adjusted to 100 ng/mL. The cells were inoculated 200 μL/well into a 96-well flat-bottom plate, stimulated overnight (<16 hours if possible) at 37° C. and 5% CO2.
(2) The supernatant was discarded the next day, and then the cells were carefully washed twice with Dulbecco's phosphate-buffered saline (200 μL/time).
(3) The cells were stimulated with LPS at a final concentration of 100 ng/mL, added to a 96-well plate (200 μL/well), and cultured at 37° C. and 5% CO2 for 3 hours.
The cells were incubated for 1 hour in a 37° C., 5% CO2 incubator.
(5) ATP was added to each well with a final concentration of 5 mM, and cultured overnight (>18 hours) at 37° C. and 5% CO2.
(6) On the third day, 5 μL of the supernatant was taken, diluted 10-fold, and the content of IL-1β in the supernatant was detected by cytometric bead array (CBA).

Data set [1] can be described thus: In vivo pharmacokinetic evaluation in CD-1 mice. The note with it: male, mouse, plasma, dose IV/PO 2/10 mg/kg. The method, then: Experimental Example 2: In Vivo Pharmacokinetic Evaluation of Compounds in CD-1 Mice
Experimental purpose: To test the in vivo pharmacokinetics of the compounds in CD-1 mice
CD-1 mice (male, 7 to 9 weeks old)
The rodent pharmacokinetic characteristics after intravenous injection and oral administration of the compounds were tested using a standard protocol. The candidate compound was prepared as a clear solution during the experiment and given to mice for single intravenous injection and oral administration. The vehicle for intravenous injection and oral administration was a mixed vehicle composed of 5% dimethyl sulfoxide and 95% 5% solutol. Four male CD-1 mice were used in this project. Two mice were administered intravenously (IV), and plasma samples were collected at 0 hours (before administration) and 0.0833, 0.25, 0.5, 1, 2, 4, 8, and 24 hours after administration. The other two mice were administered orally by gavage (PO), and plasma samples were collected at 0 hours (before administration) and 0.25, 0.5, 1, 2, 4, 8, and 24 hours after administration. The plasma concentration was quantitatively analyzed by LC-MS/MS analysis method, and the pharmacokinetic parameters were calculated, such as peak concentration (Cmax), clearance rate (CL), half-life (T1/2), […] (Vdss), area under drug-time curve (AUC0-last), bioavailability (F).

The nature of data set [2]: In vivo pharmacokinetic evaluation in SD rats. The note with it: male, rat, plasma, dose IV/PO 1/2 mg/kg. The protocol:
Experimental Example 3: In Vivo Pharmacokinetic Evaluation of Compounds in SD Rats
Experimental Purpose: To Test the In Vivo Pharmacokinetics of the Compounds in SD Rats
The rodent pharmacokinetic characteristics after intravenous injection and oral administration of the compounds were tested using a standard protocol. The candidate compound was prepared as a clear solution during the experiment and given to SD rats for single intravenous injection and oral administration. The vehicle for intravenous injection and oral administration was a mixed vehicle composed of 5% dimethyl sulfoxide and 95% 5% solutol. Four male SD rats were used in this project. Two SD rats were administered intravenously, and plasma samples were collected at 0.083, 0.25, 0.5, 1, 2, 4, 8, and 24 hours after administration. The other two SD rats were administered orally by gavage, and plasma samples were collected at 0.25, 0.5, 1, 2, 4, 8, and 24 hours after administration. The plasma concentration was quantitatively analyzed by LC-MS/MS analysis method, and the pharmacokinetic parameters were calculated, such as peak concentration (Cmaz), clearance rate (CL), half-life (T1/2), […] (Vdss), area under drug-time curve (AUC0-last), bioavailability (F).

Data set [3] deals with T2, hERG potassium ion channel (Homo sapiens, UniProt Q12809).
T2 construct: expressed in transfected cells; host or cells: CHO (CHO-hERG cell line)
Kind of data set: Inhibition test on hERG potassium ion channel (automated patch clamp, CHO-hERG cells). The data set is classed as cell-based. The note with it: Qpatch, highest test concentration 40.00 μM. The method, then:
Experimental Example 4: Inhibition Test of Compounds on hERG Potassium Ion Channel
Experimental purpose: To detect the effect of the compounds to be tested on the hERG potassium channel by an automated patch clamp method.
1.1 CHO-hERG cells were cultured in a 175 cm^2 culture flask. When the cell density reached 60 to 80%, the culture medium was removed, and the cells were washed once with 7 mL of PBS (phosphate buffered saline), and then digested with 3 mL of digestion solution.
1.2 After the digestion was completed, 7 mL of culture medium was added to neutralize, then the mixture was centrifuged, and the supernatant was aspirated, and then 5 mL of culture medium was added to re-suspend, ensuring 2 to 5×10^6/mL of cell density.
The process of single cell high impedance sealing and whole cell mode formation were all automatically completed by Qpatch instrument, after obtaining the whole cell recording mode, the cells were clamped at −80 mV, before giving a 5-second +40 mV depolarization stimulus, a 50 millisecond −50 mV prevoltage was given first, and then repolarized to −50 mV for 5 seconds, then returned to −80 mV This voltage stimulation was applied every 15 seconds and after recording for 2 minutes, extracellular fluid was recordings for 5 minutes, and then the administration process was started. The compound concentration was given from the lowest test concentration, each test concentration was given for 2.5 minutes, and 3 μM of Cisapride as the positive control compound was given after all concentrations were continuously given. At least 3 cells (n≥3) were tested at each concentration.
4.1 The mother solution of the compound was diluted with DMSO, and 10 μL of mother solution of the compound was added to 20 μL of DMSO solution, and was 3-fold diluted continuously to 6 DMSO concentrations.
4.2 4 μL of compounds with 6 DMSO concentrations were added to 396 μL of extracellular fluid, 100-fold diluted to 6 intermediate concentrations, and then 80 μL of the compounds with 6 intermediate concentrations were added to 320 μL of extracellular fluid, 5-fold diluted to the final concentration to be tested.
4.3 The highest test concentration was 40.00 μM, in a total of 6 concentrations of 40.00, 13.33, 4.44, 1.48, 0.49, and 0.16 μM respectively.
4.4 The content of DMSO in the final test concentration was not more than 0.2%, and this concentration of DMSO had no effect on hERG potassium channel.
4.5 The whole dilution process of compound preparation was completed by Bravo instrument.
The experimental data were analyzed by GraphPad Prism 5.0 software.
(hERG is a cardiac potassium channel; its block is linked to QT prolongation.)

Where [4] appears, read: PO, read-out: Area under drug-time curve AUC0-last PO.
The mark [5] stands for this setting: read-out: Peak concentration Cmax.

T2 sequence (Q12809 whole entry): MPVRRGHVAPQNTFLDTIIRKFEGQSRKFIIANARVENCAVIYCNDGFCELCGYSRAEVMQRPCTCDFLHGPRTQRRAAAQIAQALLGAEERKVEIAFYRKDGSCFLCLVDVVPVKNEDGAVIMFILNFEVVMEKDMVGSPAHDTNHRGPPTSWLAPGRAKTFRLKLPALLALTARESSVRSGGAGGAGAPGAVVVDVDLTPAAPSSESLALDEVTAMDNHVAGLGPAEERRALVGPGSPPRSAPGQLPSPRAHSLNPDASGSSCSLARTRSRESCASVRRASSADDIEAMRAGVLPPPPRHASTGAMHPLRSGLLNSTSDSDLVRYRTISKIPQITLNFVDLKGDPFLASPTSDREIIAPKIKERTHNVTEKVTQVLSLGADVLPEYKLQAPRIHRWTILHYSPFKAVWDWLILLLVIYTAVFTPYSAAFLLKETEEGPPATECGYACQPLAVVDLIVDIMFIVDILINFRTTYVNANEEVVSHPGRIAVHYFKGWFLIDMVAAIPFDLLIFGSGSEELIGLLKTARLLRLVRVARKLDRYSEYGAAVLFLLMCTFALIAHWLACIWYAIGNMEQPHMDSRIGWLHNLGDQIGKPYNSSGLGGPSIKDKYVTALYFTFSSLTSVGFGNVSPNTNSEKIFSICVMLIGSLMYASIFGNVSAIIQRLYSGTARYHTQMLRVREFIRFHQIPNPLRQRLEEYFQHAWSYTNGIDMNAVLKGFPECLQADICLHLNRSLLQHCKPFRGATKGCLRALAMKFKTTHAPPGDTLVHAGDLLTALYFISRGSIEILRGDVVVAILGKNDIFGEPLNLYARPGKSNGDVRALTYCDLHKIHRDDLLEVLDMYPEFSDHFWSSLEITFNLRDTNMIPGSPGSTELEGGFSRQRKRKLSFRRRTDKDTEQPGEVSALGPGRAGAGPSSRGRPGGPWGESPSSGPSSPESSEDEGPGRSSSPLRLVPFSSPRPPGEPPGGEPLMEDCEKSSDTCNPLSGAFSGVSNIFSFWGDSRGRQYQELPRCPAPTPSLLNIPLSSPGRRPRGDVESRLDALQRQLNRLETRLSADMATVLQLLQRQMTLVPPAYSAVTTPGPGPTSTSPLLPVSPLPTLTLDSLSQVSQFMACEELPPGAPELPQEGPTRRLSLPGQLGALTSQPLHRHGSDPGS
T1 sequence (Q96P20 whole entry): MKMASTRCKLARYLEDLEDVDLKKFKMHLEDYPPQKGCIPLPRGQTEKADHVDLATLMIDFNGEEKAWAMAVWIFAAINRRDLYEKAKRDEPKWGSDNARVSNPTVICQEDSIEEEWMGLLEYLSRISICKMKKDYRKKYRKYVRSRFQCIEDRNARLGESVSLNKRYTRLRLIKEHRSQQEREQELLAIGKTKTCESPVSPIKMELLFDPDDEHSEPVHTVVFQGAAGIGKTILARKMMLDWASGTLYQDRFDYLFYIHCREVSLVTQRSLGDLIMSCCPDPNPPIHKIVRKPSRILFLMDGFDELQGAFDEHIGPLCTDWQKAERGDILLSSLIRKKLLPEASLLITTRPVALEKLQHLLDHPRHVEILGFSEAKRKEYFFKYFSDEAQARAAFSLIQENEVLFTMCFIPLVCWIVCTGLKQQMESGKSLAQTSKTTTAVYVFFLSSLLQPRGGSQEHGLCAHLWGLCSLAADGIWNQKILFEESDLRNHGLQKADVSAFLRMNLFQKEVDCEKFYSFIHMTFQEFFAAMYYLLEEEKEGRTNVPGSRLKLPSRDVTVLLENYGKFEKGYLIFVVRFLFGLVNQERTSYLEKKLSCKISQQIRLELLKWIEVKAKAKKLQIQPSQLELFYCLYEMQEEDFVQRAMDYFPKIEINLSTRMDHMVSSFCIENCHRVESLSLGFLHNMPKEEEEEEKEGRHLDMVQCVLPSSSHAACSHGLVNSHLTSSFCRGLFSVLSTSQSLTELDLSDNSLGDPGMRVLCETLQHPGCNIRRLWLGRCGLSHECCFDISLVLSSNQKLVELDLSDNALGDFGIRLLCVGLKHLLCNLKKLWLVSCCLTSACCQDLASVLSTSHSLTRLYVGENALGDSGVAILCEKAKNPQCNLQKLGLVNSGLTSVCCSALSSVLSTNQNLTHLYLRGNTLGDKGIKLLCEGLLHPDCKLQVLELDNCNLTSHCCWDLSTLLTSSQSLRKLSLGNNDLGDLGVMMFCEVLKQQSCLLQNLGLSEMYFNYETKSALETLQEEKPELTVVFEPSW

As usually defined, the IC50 is the concentration that inhibits the measured activity by half. Higher therefore signals lower potency. Regarding `Cc1cc(N[C@@H]2CCCC[C@H]2O)nnc1-c1ccc2sccc2c1O` [Hydrochloride of compound 60], the results for the 50% inhibitory concentration (IC50) (at NLRP3; in data set [3]) were 0.436 nM and > 40000 nM, respectively. In addition, the half-life in data set [1] (2 mg/kg, IV, read-out: Half-life T1/2 (IV) (converted)) was 1.45 h; in data set [2] (1 mg/kg, IV, read-out: Half-life T1/2 (IV) (converted)) it was 1.08 h. Further, the clearance in data set [1] (2 mg/kg, read-out: Clearance rate CL) worked out at 12.8 mL/min/kg; in data set [2] (1 mg/kg, read-out: Clearance rate CL), 10 mL/min/kg. Moreover, the Vd in data set [1] (2 mg/kg, read-out: Tissue distribution Vdss) is 1.08 L/kg; in data set [2] (1 mg/kg, read-out: Tissue distribution Vdss) it was 0.402 L/kg. Also, the AUC(0-t) in data set [1] (setting [4]) was determined as 48.1 µM·h; in data set [2] (setting [4]) it was 6.66 µM·h. The results for the bioavailability in data set [1] (read-out: Bioavailability F) and in data set [2] (read-out: Bioavailability F) were 147% and 71.1%, respectively. Moreover, the figures for the Cmax in data set [1] (setting [5]) and in data set [2] (setting [5]) were 22.2 µM and 2.61 µM, respectively.
